Test results from patent US9199979B2, “Thiazolylphenyl-benzenesulfonamido derivatives as kinase inhibitors” (NERVIANO MEDICAL SCIENCES S.R.L., priority 2011, dated 2015).

Tests used:
Assay type in all cases: cell-based
[1] = tested on: human melanoma cells Mewo (with wild-type B-Raf); assay: In vitro cell proliferation assay, Mewo; details: 72 h treatment, cellular ATP readout
Protocol: (§1) Exponentially growing human melanoma cells A375 (with a mutated B-Raf) and human melanoma cells Mewo (with wild-type B-Raf) were seeded and incubated at 37° C. in a humidified 5% CO2 atmosphere. After 24 h, scalar doses of the compound were added to the medium and cells incubated for 72 h. At the end of treatment, cells were washed and counted. Cell number was determined by a cellular adenosine triphosphate monitoring system. Cell proliferation was compared to control cells and the concentration inhibiting cell growth by 50% was calculated.

[2] = tested on: human melanoma cells A375 (with a mutated B-Raf); assay: In vitro cell proliferation assay, A375; details: A-375, 72 h treatment, cellular ATP readout
Protocol: as §1

[3] = tested on: p-MAPK (T202/Y204) in A375 human melanoma cells, having a mutated B-Raf; assay: p-MAPK (T202/Y204) ArrayScan assay; details: A-375, 1.5 or 2 h treatment, p-MAPK staining, read-out: Array Scan A375 IC50
Protocol: A375 human melanoma cells, having a mutated B-Raf, were seeded in 384-well poly-lysine coated plates (Matrix) at a density of 1000 cells/well with appropriate medium supplemented with 10% FCS and incubated for 16-24 h. Cells were treated for 1.5 or 2 h with increasing doses of compounds (starting dose 10 μM, dilution factor 2.5). At the end of the treatment cells were fixed with p-formaldehyde 3.7% for 15-30 min, then washed twice with D-PBS (80 μL/well) and permeabilized with D-PBS containing 0.1% Triton X-100 and 1% BSA (Sigma-Aldrich) for 15 min at room temperature (staining solution). Anti-phospho-MAPK (T202/Y204) monoclonal antibody E10 (Cell Signaling, cat. #9106) diluted 1:100 was added in staining solution and incubated for 1 h at 37° C. After removal of the primary antibody solution, the anti-mouse Cy™ 2-conjugated (Green) secondary antibody (Amersham) diluted 1:500 in staining solution containing 2 μg/mL DAPI was added. The plate was incubated for 1 h at 37° C., washed twice and then read with Cellomics' ArrayScan VTI (4 fields/well, CytoNucTrans algorithm).
The parameter “MEAN_RingAvgIntenCh2”, which measures the mean cytoplasmatic fluorescence intensity associated to p-MAPK staining, is reported as the final result.

SMILES | IC50 [1] | IC50 [2] | IC50 [3]
CC(=O)Nc1cc(-c2sc(C3CCNCC3)nc2-c2cccc(NS(=O)(=O)c3cc(F)ccc3F)c2F)ccn1 [cmpd. 44, N-{4-[4-(3-{[(2,5-difluorophenyl)sulfonyl]amino}-2-fluorophenyl)-2-(piperidin-4-yl)-1,3-thiazol-5-yl]pyridin-2-yl}acetamide] | > 10000 nM | 40 nM | 
COC(=O)N[C@@H](C)CNc1cc(-c2sc(C3CCOCC3)nc2-c2cccc(NS(=O)(=O)c3cc(F)ccc3F)c2F)ccn1 [cmpd. 41, Methyl [(2S)-1-({4-[4-(3-{[(2,5-difluorophenyl)sulfonyl]amino}-2-fluorophenyl)-2-(tetrahydro-2H-pyran-4-yl)-1,3-thiazol-5-yl]pyridin-2-yl}amino)propan-2-yl]carbamate] | > 10000 nM | 8 nM | 
CC(=O)NCCNc1cc(-c2sc(C3CCOCC3)nc2-c2cccc(NS(=O)(=O)c3cc(F)ccc3F)c2F)ccn1 [cmpd. 36, N-[2-({4-[4-(3-{[(2,5-difluorophenyl)sulfonyl]amino}-2-fluorophenyl)-2-(tetrahydro-2H-pyran-4-yl)-1,3-thiazol-5-yl]pyridin-2-yl}amino)ethyl]acetamide] | > 10000 nM | 69 nM | 
CC(=O)Nc1cc(-c2sc(C(C)(C)C)nc2-c2cccc(NS(=O)(=O)c3cc(F)ccc3F)c2F)ccn1 [cmpd. 42, N-{4-[2-tert-butyl-4-(3-{[(2,5-difluorophenyl)sulfonyl]amino}-2-fluorophenyl)-1,3-thiazol-5-yl]pyridin-2-yl}acetamide] | > 10000 nM | 0.6 nM | 
CC(=O)Nc1cc(-c2sc(C3CCN(C)CC3)nc2-c2cccc(NS(=O)(=O)c3cc(F)ccc3F)c2F)ccn1 [cmpd. 23, N-{4-[4-(3-{[(2,5-difluorophenyl)sulfonyl]amino}-2-fluorophenyl)-2-(1-methylpiperidin-4-yl)-1,3-thiazol-5-yl]pyridin-2-yl}acetamide] | > 10000 nM | 6 nM | 
CC(C)(C)c1nc(-c2cccc(NS(=O)(=O)c3cc(F)ccc3F)c2F)c(-c2ccncc2)s1 [cmpd. 43, N-{3-[2-tert-butyl-5-(pyridin-4-yl)-1,3-thiazol-4-yl]-2-fluorophenyl}-2,5-difluorobenzenesulfonamide] | > 10000 nM | 12 nM | 
CN1CCC(c2nc(-c3cccc(NS(=O)(=O)c4cc(F)ccc4F)c3F)c(-c3ccnc(N)c3)s2)CC1 [cmpd. 39, N-{3-[5-(2-aminopyridin-4-yl)-2-(1-methylpiperidin-4-yl)-1,3-thiazol-4-yl]-2-fluorophenyl}-2,5-difluorobenzenesulfonamide] | > 10000 nM | 27 nM | 
CCN(CC)c1nc(-c2c(F)ccc(NS(=O)(=O)c3cc(F)ccc3F)c2F)c(-c2ccncc2)s1 [cmpd. 3, N-{3-[2-(diethylamino)-5-(pyridin-4-yl)-1,3-thiazol-4-yl]-2,4-difluorophenyl}-2,5-difluorobenzenesulfonamide] | > 10000 nM | 166 nM | 1 nM
CNc1cc(-c2sc(C3CCOCC3)nc2-c2cccc(NS(=O)(=O)c3cc(F)ccc3F)c2F)ccn1 [cmpd. 25, 2,5-difluoro-N-(2-fluoro-3-{5-[2-(methylamino)pyridin-4-yl]-2-(tetrahydro-2H-pyran-4-yl)-1,3-thiazol-4-yl}phenyl)benzenesulfonamide] | > 10000 nM | 32 nM | 
O=S(=O)(Nc1ccc(F)c(-c2nc(N3CCC(F)(F)CC3)sc2-c2ccncc2)c1F)c1cc(F)ccc1F [cmpd. 14, N-{3-[2-(4,4-difluoropiperidin-1-yl)-5-(pyridin-4-yl)-1,3-thiazol-4-yl]-2,4-difluorophenyl}-2,5-difluorobenzenesulfonamide] | > 10000 nM | 66 nM | 4 nM
CC(=O)Nc1cc(-c2sc(C3CCOCC3)nc2-c2cccc(NS(=O)(=O)c3cc(F)ccc3F)c2F)ccn1 [cmpd. 35, N-{4-[4-(3-{[(2,5-difluorophenyl)sulfonyl]amino}-2-fluorophenyl)-2-(tetrahydro-2H-pyran-4-yl)-1,3-thiazol-5-yl]pyridin-2-yl}acetamide] | > 10000 nM | 0.6 nM | 
CNc1cc(-c2sc(C3CCN(C)CC3)nc2-c2cccc(NS(=O)(=O)c3cc(F)ccc3F)c2F)ccn1 [cmpd. 38, 2,5-difluoro-N-(2-fluoro-3-{5-[2-(methylamino)pyridin-4-yl]-2-(1-methylpiperidin-4-yl)-1,3-thiazol-4-yl}phenyl)benzenesulfonamide] | > 10000 nM | 47 nM | 
CNc1cc(-c2sc(C3CCN(C4CC4)CC3)nc2-c2cccc(NS(=O)(=O)c3cc(F)ccc3F)c2F)ccn1 [cmpd. 37, N-(3-{2-(1-cyclopropylpiperidin-4-yl)-5-[2-(methylamino)pyridin-4-yl]-1,3-thiazol-4-yl}-2-fluorophenyl)-2,5-difluorobenzenesulfonamide] | > 10000 nM | 92 nM | 
O=S(=O)(Nc1cccc(-c2nc(N3CCC(F)(F)CC3)sc2-c2ccncc2)c1F)c1cc(F)ccc1F [cmpd. 18, N-{3-[2-(4,4-difluoropiperidin-1-yl)-5-(pyridin-4-yl)-1,3-thiazol-4-yl]-2-fluorophenyl}-2,5-difluorobenzenesulfonamide] | > 10000 nM | 127 nM | 2 nM
CN1CCC(c2nc(-c3cccc(NS(=O)(=O)c4cc(F)ccc4F)c3F)c(-c3ccncc3)s2)CC1 [cmpd. 19, 2,5-difluoro-N-{2-fluoro-3-[2-(1-methylpiperidin-4-yl)-5-(pyridin-4-yl)-1,3-thiazol-4-yl]phenyl}benzenesulfonamide] | > 10000 nM | 40 nM | 2 nM
CC(=O)Nc1cc(-c2sc(C3CCN(C4CC4)CC3)nc2-c2cccc(NS(=O)(=O)c3cc(F)ccc3F)c2F)ccn1 [cmpd. 30, N-{4-[2-(1-cyclopropylpiperidin-4-yl)-4-(3-{[(2,5-difluorophenyl)sulfonyl]amino}-2-fluorophenyl)-1,3-thiazol-5-yl]pyridin-2-yl}acetamide] | > 10000 nM | 3 nM | 
Nc1cc(-c2sc(C3CCN(C4CC4)CC3)nc2-c2cccc(NS(=O)(=O)c3cc(F)ccc3F)c2F)ccn1 [cmpd. 22, N-{3-[5-(2-aminopyridin-4-yl)-2-(1-cyclopropylpiperidin-4-yl)-1,3-thiazol-4-yl]-2-fluorophenyl}-2,5-difluorobenzenesulfonamide] | > 10000 nM | 27 nM | 
O=S(=O)(Nc1cccc(-c2nc(C3CCN(C4CC4)CC3)sc2-c2ccncc2)c1F)c1cc(F)ccc1F [cmpd. 21, N-{3-[2-(1-cyclopropylpiperidin-4-yl)-5-(pyridin-4-yl)-1,3-thiazol-4-yl]-2-fluorophenyl}-2,5-difluorobenzenesulfonamide] | > 10000 nM | 23 nM | 
Nc1cc(-c2sc(C3CCOCC3)nc2-c2cccc(NS(=O)(=O)c3cc(F)ccc3F)c2F)ccn1 [cmpd. 24, N-{3-[5-(2-aminopyridin-4-yl)-2-(tetrahydro-2H-pyran-4-yl)-1,3-thiazol-4-yl]-2-fluorophenyl}-2,5-difluorobenzenesulfonamide] | > 10000 nM | 15 nM | 
O=S(=O)(Nc1cccc(-c2nc(C3CCOCC3)sc2-c2ccncc2)c1F)c1cc(F)ccc1F [cmpd. 20, 2,5-difluoro-N-{2-fluoro-3-[5-(pyridin-4-yl)-2-(tetrahydro-2H-pyran-4-yl)-1,3-thiazol-4-yl]phenyl}benzenesulfonamide] | > 10000 nM | 78 nM | 2 nM
